{
  "source": "patent US7973080B2",
  "about": "(Ambria Dermatology AB, priority 2003, dated 2011)",
  "system": "S. aureus",
  "experiment": "MIC by standard blood agar dilution technique",
  "from_the_text": "The following bacteria were investigated: methicillin-resistant Staphylococcus aureus (MSRA), fucidic acid-resistant S. aureus, non-resistant S. pyogenes, coagulation-negative staphylococci (for resistance, see Table 1 below) vancomycin-resistant enterococci (Enterococcus CCUG van A and van B), non-resistant Escherichia coli, Acinetobacter resistant against cefadroxil, nitrofurantin, mecillinam, Serratia maltophilia resistant against most types of antibiotics, Enterobacter (for resistance, see Table 1 below; additionally resistant against cefadroxil and nitrofurantin), non-resistant α-streptococci, non-resistant Streptococcus Group G, Pseudomonas aeruginosa (for resistance, see Table 2 below). Inocula of 10^3 and 10^5 bacteria were used.",
  "data": [
    {"smiles": "OCCCCCO", "note": "[pentane-1,5-diol]", "values": [
      {"measurement": "MIC (% by weight of pentane-1,5-diol)", "setting": "S. aureus 916 × 8137, inoculate size 10^3, MR fuc −", "result": 12.5, "unit": "% by weight"},
      {"measurement": "MIC (% by weight of pentane-1,5-diol)", "setting": "S. aureus 916 × 8137, inoculate size 10^5, MR fuc −", "result": 10.0, "unit": "% by weight"},
      {"measurement": "MIC (% by weight of pentane-1,5-diol)", "setting": "S. aureus 916 × 8143, inoculate size 10^3, MR fuc −", "result": 12.5, "unit": "% by weight"},
      {"measurement": "MIC (% by weight of pentane-1,5-diol)", "setting": "S. aureus 916 × 8143, inoculate size 10^5, MR fuc −", "result": 12.5, "unit": "% by weight"},
      {"measurement": "MIC (% by weight of pentane-1,5-diol)", "setting": "S. aureus 916 × 8150, inoculate size 10^3, MR fuc −", "result": 12.5, "unit": "% by weight"},
      {"measurement": "MIC (% by weight of pentane-1,5-diol)", "setting": "S. aureus 916 × 8150, inoculate size 10^5, MR fuc −", "result": 15.0, "unit": "% by weight"},
      {"measurement": "MIC (% by weight of pentane-1,5-diol)", "setting": "S. aureus 916 × 8155, inoculate size 10^3, MR fuc −", "result": 10.0, "unit": "% by weight"},
      {"measurement": "MIC (% by weight of pentane-1,5-diol)", "setting": "S. aureus 916 × 8155, inoculate size 10^5, MR fuc −", "result": 12.5, "unit": "% by weight"},
      {"measurement": "MIC (% by weight of pentane-1,5-diol)", "setting": "S. aureus 916 × 8158, inoculate size 10^3, MR fuc −", "result": 12.5, "unit": "% by weight"},
      {"measurement": "MIC (% by weight of pentane-1,5-diol)", "setting": "S. aureus 916 × 8158, inoculate size 10^5, MR fuc −", "result": 15.0, "unit": "% by weight"},
      {"measurement": "MIC (% by weight of pentane-1,5-diol)", "setting": "S. aureus 916 × 8163, inoculate size 10^3, MR fuc +", "result": 12.5, "unit": "% by weight"},
      {"measurement": "MIC (% by weight of pentane-1,5-diol)", "setting": "S. aureus 916 × 8163, inoculate size 10^5, MR fuc +", "result": 17.5, "unit": "% by weight"},
      {"measurement": "MIC (% by weight of pentane-1,5-diol)", "setting": "S. aureus 916 × 8180, inoculate size 10^3, MR fuc −", "result": 12.5, "unit": "% by weight"},
      {"measurement": "MIC (% by weight of pentane-1,5-diol)", "setting": "S. aureus 916 × 8180, inoculate size 10^5, MR fuc −", "result": 15.0, "unit": "% by weight"},
      {"measurement": "MIC (% by weight of pentane-1,5-diol)", "setting": "S. aureus 916 × 8181, inoculate size 10^3, MR fuc −", "result": 12.5, "unit": "% by weight"},
      {"measurement": "MIC (% by weight of pentane-1,5-diol)", "setting": "S. aureus 916 × 8181, inoculate size 10^5, MR fuc −", "result": 15.0, "unit": "% by weight"},
      {"measurement": "MIC (% by weight of pentane-1,5-diol)", "setting": "S. aureus 916 × 8183, inoculate size 10^3, MR fuc −", "result": 12.5, "unit": "% by weight"},
      {"measurement": "MIC (% by weight of pentane-1,5-diol)", "setting": "S. aureus 916 × 8183, inoculate size 10^5, MR fuc −", "result": 17.5, "unit": "% by weight"},
      {"measurement": "MIC (% by weight of pentane-1,5-diol)", "setting": "S. aureus 916 × 8184, inoculate size 10^3, MR fuc +", "result": 10.0, "unit": "% by weight"},
      {"measurement": "MIC (% by weight of pentane-1,5-diol)", "setting": "S. aureus 916 × 8184, inoculate size 10^5, MR fuc +", "result": 12.5, "unit": "% by weight"},
      {"measurement": "MIC (% by weight of pentane-1,5-diol)", "setting": "S. aureus 916 × 8191, inoculate size 10^3, MR fuc −", "result": 12.5, "unit": "% by weight"},
      {"measurement": "MIC (% by weight of pentane-1,5-diol)", "setting": "S. aureus 916 × 8191, inoculate size 10^5, MR fuc −", "result": 15.0, "unit": "% by weight"}
    ]}
  ]
}
